Results on one molecule are retold here after patent publication US20240417371A1, “CANNABIDIOL DERIVATIVE, AND PREPARATION METHOD THEREFOR AND USE THEREOF” (priority 2021, published 2024).

In assay [1] the test system is mouse model of Parkinson's disease established by the intraperitoneal injection of MPTP. In words: Behavioral balance beam score in MPTP model of Parkinson's disease. The class given is in vivo, C57/BL6 mice. The following applies: scale 0-5. The method, then: C57/BL6 mice, SPF grade, weighing 18-20 g, aged 6-8 weeks, male, purchased from Shanghai Slac Laboratory Animal Co., Ltd. Feeding environment: the temperature was kept at 22±1° C., and the humidity was kept at 65%-70%, in a 12/12 hour light/dark illumination cycle, with free access to water.
(§1) • (1) SPF-grade C57 mice aged 6-8 weeks were purchased and acclimatized for one week, and subsequently the modeling was started. • (2) MPTP (25 mg/kg) was intraperitoneally injected once a day for 7 consecutive days. The blank group was left untreated. • (3) After modeling, administration was started. […] The intragastric administration was performed once a day for 14 consecutive days. • (4) Behavioral test was first performed by balance beam test scoring.
A beam of 80 cm long and 2.5 cm wide was horizontally fixed at a height of 10 cm from the table top, and subsequently, the animals were allowed to walk on the beam. […]

The test system of assay [2] is tyrosine hydroxylase (TH) cells in substantia nigra (SubN). In words: Tyrosine hydroxylase (TH) cells in substantia nigra (SubN) by immunohistochemistry. The following applies: MPTP mice, intragastric 100 mg/kg for 14 days (positive drug = amantadine 40 mg/kg). It is filed as in vivo, C57/BL6 mice. The method, then: as §1
5. Determination of Tyrosine Hydroxylase (TH) Cells in Substantia Nigra (SubN) by Immunohistochemistry
The tissue should be cut using sharp knives and scissors. When cutting a tissue mass, the tissue was cut by pulling backwards from the root of the knife. […] The prepared tissue mass was fixed in 10% formalin for 48 h.
The fixed tissue was washed with running water to remove residual fixing liquid and impurities. The tissue mass was dehydrated in stages with different concentrations of ethanol (50%, 70%, 85%, 95%, up to pure alcohol (absolute ethanol)), each stage for 2 h. Dehydration must be performed in a capped flask to prevent high concentrations of ethanol from absorbing moisture in the air, resulting in reduced concentrations and incomplete dehydration. The material to be preserved can remain in 70% ethanol when being dehydrated with it. For long-term preservation, an equivalent amount of glycerol can be added. […]

On to `C=C(C)[C@@H]1CCC(C)=C[C@H]1c1c(O)cc(CCCCC)cc1OCC(=O)N[C@@H](CCSC)C(=O)[O-].[Na+]` [Compound E1], for which the “behavioral balance beam score, After modeling” value in assay [1] (after MPTP 25 mg/kg i.p. for 7 days, before treatment) came to 4.63 ± 0.52. Moreover, the “behavioral balance beam score, After treatment” value in assay [1] (intragastric 100 mg/kg once a day for 14 days (positive drug = amantadine 40 mg/kg)) was determined as 3.75 ± 0.89. In addition, in assay [2], the “TH cell positive rate” value is 16.92 ± 3.13 %.
